In patent US20260091147A1, “METHOD FOR DETECTING INNATE IMMUNE ACTION IN VIVO USING GPR84-PET” (The Board of Trustees of the Leland Standford Junior …, priority 2023, published 2026):

Columns and labels:
GPR84 [1] = biological target: T1, GPR84 (Mus musculus, UniProt Q8CIM5); experiment: Ex vivo gamma counting of CNS tissues in EAE vs naive mice
T1 construct: tissue Jackson Laboratories; host or cells: female C57BL/6J mice (LPS, saline, EAE or naive): brain, spinal cord and peripheral organs
Protocol: After the PET/CT scan the mice were perfused under 3% isoflurane and organs of interest were dissected out, weighed, and placed on a Hidex gamma counter to quantify the percent of injected dose per gram of tissue. After gamma counting, CNS tissues were frozen and sectioned on a cryotome at 40 μm and placed on a phosphor storage screen overnight. The images were read using a Typhoon imager 18 h after the screen was exposed to the tissues. Additional mice were also injected off of the PET/CT scanner and perfused at 60-min post-injection to increase the N for the ex vivo gamma counting and autoradiography data.
Radiosynthesis of ^18F-MGX-110S was achieved by copper-mediated fluorination of a Bpin precursor in a mixture of dimethylacetamide at 130° C. for 20 min. C57BL/6 mice were induced with EAE using myelin oligodendrite glycoprotein (MOG35-55) emulsified in complete Freund's adjuvant and weighed/scored daily for disease severity. Expression of Gpr84 and Tspo was assessed in EAE (n=10-16 mice of low and high disease severities) versus naïve mice (n=5) using quantitative polymerase chain reaction (qPCR) of CNS tissues. In vivo kinetics, spatial distribution, and BBB permeability of ^18F-MGX-110S was assessed via 60-min dynamic PET/CT imaging of naïve C57BL/6 (n=3) and high scoring EAE mice (n=3). […]

GPR84 [2] = biological target: T1, GPR84; experiment: Dynamic PET/CT in EAE vs naive mice, spinal cord time activity curves; type: in vivo
Protocol: 10-week old female C57BL/6 mice were induced with EAE using kits from Hooke Laboratories Inc. (cat #EK2110; Lawrence, MA). After anesthetizing mice with isoflurane gas (2.0-3.0% for induction and 1.5-2.5% for maintenance), they were inoculated with myelin oligodendrocyte glycoprotein (MOG35-55) in complete Freund's adjuvant (CFA) (0.2 mL per mouse, S.C.), followed by two pertussis toxin (PTX) injections (110 ng per injection, I.P., 1 and 24 h post-MOG injection). All mice were weighed and scored daily in the morning from day 8 onwards according to standard EAE scoring systems: 0, no paralysis; 1, loss of tail tone; 2, hind limb weakness or paresis; 3, hind limb paralysis; 4, complete hind leg and partial front leg paralysis. EAE mice were given supplemental food and fluids as necessary.
On days 15-16 after EAE induction, mice were catheterized and placed on the 4-mouse scanning bed of the Sofie GNEXT PET/CT scanner. Mice were injected with a radiotracer bolus of 130-170 μCi of ^18F-MGX-110S for a 60-min dynamic PET scan followed by CT. Scans were reconstructed from list mode into 19 frames (4×15 s, 4×60 s, 11×300 s) using OSEM3D reconstruction with 3 iterations and 24 subsets. Brain analysis was performed using a semi-automated brain atlas on VivoQuant software (2020 version) and spinal cords were manually drawn as previously described (JoVE).
Radiosynthesis of ^18F-MGX-110S was achieved by copper-mediated fluorination of a Bpin precursor in a mixture of dimethylacetamide at 130° C. for 20 min. C57BL/6 mice were induced with EAE using myelin oligodendrite glycoprotein (MOG35-55) emulsified in complete Freund's adjuvant and weighed/scored daily for disease severity. Expression of Gpr84 and Tspo was assessed in EAE (n=10-16 mice of low and high disease severities) versus naïve mice (n=5) using quantitative polymerase chain reaction (qPCR) of CNS tissues. In vivo kinetics, spatial distribution, and BBB permeability of ^18F-MGX-110S was assessed via 60-min dynamic PET/CT imaging of naïve C57BL/6 (n=3) and high scoring EAE mice (n=3). Ex vivo gamma counting of tissues of interest was conducted using naïve (n=8) and EAE (n=8) mice 60-min post-tracer injection. Lastly, EAE (n=3) and naïve (n=4) mice were injected with ^18F-GE180 and dissected 60 min later for gamma counting as a comparison.

GPR84 [3] = biological target: T1, GPR84; experiment: Ex vivo biodistribution (gamma counting) of GPR84 tracer in LPS- vs saline-treated mice; details: LPS 10 mg/kg
Protocol: FIGS. 11A-11B show ex vivo biodistribution and autoradiography. […] At 20 min postinjection, animals were perfused with saline and tissues were collected, weighed, and gamma-counted. […] Statistical analysis was performed using “Unpaired t test with Welch correction”, *=P<0.05. […] Cb=cerebellum, Ctx=cortex, Str=striatum, H=hippocampus, Mb=midbrain, Ob=olfactory bulb, and BS=brain stem.
To determine KD of GLPG38, a competitive binding assay was performed using a membrane preparation from cells expressing GPR84-Gi in addition to [^3H]G9543, a known GPR84 antagonist. [^11C]GLPG38 was then radiosynthesized via [^11C]methylation of desmethyl precursor using [^11C]methyl iodide. […] Dynamic 60 min PET/CT imaging was performed 24 hr following LPS-administration using [^11C]GLPG38. Subsequently, mice were perfused with PBS to remove blood, and radioactive signal was assessed in CNS and peripheral tissues via gamma counting. Ex vivo autoradiography of sagittal mouse brain sections was conducted to obtain high resolution images of [^11C]GLPG38 binding. To investigate alterations in GPR84 mRNA expression, quantitative polymerase-chain reaction was performed using mouse brain tissue and human monocyte-derived macrophage cells stimulated with LPS 24 hr prior to RNA extraction.

T1 sequence (Q8CIM5 whole entry): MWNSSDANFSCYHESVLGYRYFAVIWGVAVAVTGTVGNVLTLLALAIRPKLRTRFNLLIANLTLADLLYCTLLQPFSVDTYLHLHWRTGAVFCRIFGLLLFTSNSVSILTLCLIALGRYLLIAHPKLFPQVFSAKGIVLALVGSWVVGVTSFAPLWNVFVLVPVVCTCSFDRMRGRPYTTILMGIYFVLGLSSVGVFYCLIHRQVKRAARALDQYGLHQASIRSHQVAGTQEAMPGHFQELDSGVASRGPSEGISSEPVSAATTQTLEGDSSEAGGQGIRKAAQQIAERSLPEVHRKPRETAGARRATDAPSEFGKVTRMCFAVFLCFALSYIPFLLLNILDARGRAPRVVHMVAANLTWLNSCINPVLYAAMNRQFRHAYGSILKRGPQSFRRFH

| signal-to-background ratio (EAE-to-naive) in lumbar spinal cord relative to 18F-GE180 (GPR84 [1]; 60 min post injection) | tracer binding in cervical/thoracic and lumbar spinal cord, EAE vs naive (GPR84 [1]; both p<0.01) | cervical/thoracic spinal cord signal at 60 min, EAE mice (GPR84 [2]; high scoring EAE, n=3) | lumbar spinal cord signal at 60 min, EAE mice (GPR84 [2]; high scoring EAE, n=3, p=0.0206) | cervical/thoracic spinal cord signal at 60 min, naive mice (GPR84 [2]; n=3) | lumbar spinal cord signal at 60 min, naive mice (GPR84 [2]; n=3) | Structure (SMILES) | gamma counting signal in brain, LPS-injected vs vehicle mice (GPR84 [3]; p=0.0023) | gamma counting tracer binding in adipose tissue, LPS vs vehicle mice (GPR84 [3]; p=0.007) |
| --- | --- | --- | --- | --- | --- | --- | --- | --- |
| 2.5 fold | significantly elevated tracer binding | 4.54±1.16 % ID/g | 7.08±1.05 % ID/g | 3.21±0.42 % ID/g | 4.13±0.79 % ID/g | O=c1nc(OC[C@@H]2COCCO2)cc2n1CCc1cc([18F])ccc1-2 [^18F-MGX-110S] | – | – |
| – | – | – | – | – | – | Cc1cc2c(cc1O[11CH3])CCn1c-2c(C)c(OC[C@@H]2COCCO2)cc1=O [[^11C]GLPG38] | increased signal in the brain | significant increase in tracer binding |
